Series [1] is described as follows: Circular dichroism (CD) to measure degree of secondary structure (alpha-helicity). Conditions: for dependence of helicity on added NaF: NaF up to 250 mM, 5 mM sodium borate; for dependence of CD spectra on peptide concentration: presence and absence of metal ions, 0.5-70 μM. Type of series: physicochemical. Here is the method: ID No's. 3 and 4. The analysis was performed as described above.
Proton nuclear magnetic resonance spectra were recorded at 300MHz on Bruker AM300 spectrometer and are reported in parts per million (ppm) downfield from Me4 Si. Ultraviolet-visible spectra were recorded on Aviv Associates 14DS and Milton Roy Spectronic 3000 Array spectrometers. Circular dichroism measurements were made on Aviv Associates 62DS spectrometer equipped with a thermostable cell holder using 10, 1, and 0.1 mm Hellma quartz cells. All reported CD data have an uncertainty of ±2-5%. All ellipticity measurements are expressed as mean residue ellipticity, [θ], having the units deg·cm^2 ·dmol-^1.
A general note: CD spectra are sensitive to the conformation of chiral molecules.

The nature of series [2]: Aqueous solubility of the peptide. Format: physicochemical. Here is the method: The peptide, in the absence of a metal ion, was readily soluble (up to about 2 mg/ml, 1.3 mM) in aqueous media at a pH value of from about 4 to about 9.
Series [3] can be described thus: CD titration: dependence of [θ]222 on free metal ion concentration, CdCl2. Format: binding. Conditions: 21° C. The source says: (§1) FIG. 4 illustrates the dependence of mean residue molar ellipticity at 222 nm ([.THETA.]222 ×10^-3) of peptides SEQ ID NO's:2 AND 3 on the concentration of free metal ions when measured as described in Example 3A(2).
(§2) The peptide metal salt solution admixtures prepared as in Example 2A were subjected to CD analyses according to published procedures to measure the degree of stability induced by metal ion complexation with peptides. Greenfield et al., Biochem, 8:4108 (1969) and Johnson, Ann. Rev. Biophvs. Chem., 17:145 (1988). All CD data reported herein have an uncertainty of ±2 to 5% for a 100% helix, [θ]222 =-35,000, and are based on several CD measurements of both peptides SEQ ID NO's:2 and 3 in the presence and absence of metal ions in various TFE/H20 mixtures at -10° to 20° C.
(§3) Both Cu(II) and Zn(II) bound peptide SEQ ID NO:3 with similar affinities and increased the helical content to the same extent.

Series [4] in a line: CD titration: dependence of [θ]222 on free metal ion concentration, ZnCl2. Format: binding. Conditions: for effect of Zn(II) on helical content: CD analysis, ZnCl2.
Description: as §1, §2, §3

Series [5] is described as follows: Metal ion selectivity and relative affinities by CD analysis. Format: binding. The text has this:
Metal ion selectivity is an expected consequence of site specific metal-ligand interaction. The extent of helical induction, to a first approximation, depends on the affinity of metal ion toward the ligands employed, and on the compatibility of metal ion geometry and coordination sphere with the alpha-helical conformation. Thus, although numerous metal ions can induce and stabilize alpha-helix formation, the metal ion having the greatest relative affinity for the ligands employed is preferred and can readily be determined. […]
Peptides, prepared as in Example 1, and admixed with various metal salt solutions as described in Example 2B, were subjected to CD analysis to characterize metal ion selectivity with respect to the position of the metal binding site in the alpha-helical sequence.

Series [6] in a line: Concentration dependence of ellipticity at 222 nm, monomer-nmer equilibria. Format: physicochemical. Conditions: absence of added metal ions; nonlinear regression MINSQ. As to the method:
Data (Δ) were analyzed according to monomer-.eta.mer equilibria using the equation below, where Pn, Pmon, and PT are the self-associated, monomeric, and total concentrations of the peptides, respectively, n is the degree of association, θmon is the ellipticity of the monomer, and θn is the ellipticity of the self-associated form of the peptide. The values of n=1.95, θmon =-10,100, θn =-27,900, and Kdiss =6.4×10^-4 were determined by the nonlinear regression program MINSQ. [formula]

Series [7] is described as follows: CD titration: dependence of [θ]222 on free metal ion concentration, CuCl2. Type of series: binding. Conditions: CuCl2, pH 5.3; peptide 6.1×10^-5 M in 5 mM sodium borate, 21° C.
Description: as §1, §2, §3

Series [8] is described as follows: Heat denaturation assay to measure melting temperatures. Format: physicochemical. As to the method:
In order to assess differences in helix stability between the metal ion complexed and uncomplexed forms of peptides Seq. ID No's. 3 and 4, the conformational stability of each peptide in the presence and absence of transition metal ions was determined from heat denaturation studies according to published procedures. Pace et al., In Protein structure, p. 311., IRL Press, (1989). The analysis of the thermal denaturation curves afforded linear ΔG vs. T and van't Hoff plots. […] Complexed peptides Seq. ID No's.
Because tris-bipyridyl-metal ion coordination complexes are chiral and can form either a left-handed or a right-handed helix, two diastereomeric tri-helical structures can possibly be formed. The stereogenic environment of the ensuing parallel tri-helical topology as well as the geometrical constraints imposed by the overall C3 symmetry of the coordination complex was expected, however, to enforce a high degree of diastereoselectivity in the assembly process. The CD spectrum (in the region of 280 and 330 nm) of the peptide in the presence of Ni(II) indicated the formation of one diastereomer having a left-handed helical configuration. Such a behavior is also consistent with the expected left handed supercoil of the tri-helical metallopolypeptide. The analysis of the thermal denaturation curves for the metallopolypeptide in the presence of Ni(II) yielded linear ΔG vs T and van't Hoff plots.

Series [9] in a line: CD titration: dependence of [θ]222 on free metal ion concentration, NiCl2. Format: binding. Conditions: NiCl2, pH 6.3; peptide 6.1×10^-5 M in 5 mM sodium borate, 21° C.
Description: as §1, §2, §3

Series [10] in a line: Absorption spectroscopy pH profile of Ru(III)-peptide complexes. Type of series: physicochemical. Conditions: from absorption data vs pH. The source says: The Ru(III)-peptide SEQ ID NO:3 complex prepared as in Example 2B was subjected to absorption spectroscopy to further confirm the formation of a metallopeptide complex.
The pronounced shift in absorption maxima with increasing pH value is consistent with the behavior of the Ru(III) ions containing coordinated imidazoles and is attributed to N-H deprotonation at the "pyrrole nitrogen", Sunberg et al., J. Am. Chem. Soc., 96:381 (1974). […] The spectral similarity with the simple ruthenium(III)imidazole complexes and the characteristically facile metal-ion promoted imidazole NH ionization provide further support for the formation of the metallopeptide complex.

Setting [11] is: with CdCl2 (solution 8, 7.3×10^-4 M), water, 4° C.
The mark [12] stands for this setting: Ni(II) or Co(II) ions plus 150 mM NaCl.
Where [13] appears, read: absence of any polyvalent metal ion, 7.4 μM in 5 mM sodium borate, pH 6.4, 21° C.
[14] abbreviates: presence of Ni(II) or Co(II) ions, similar conditions (5 mM sodium borate, pH 6.4, 21° C.).
The mark [15] stands for this setting: in the presence of Cu(II) ions (CuSO4, solution 13) at 0° C.

Where “and” joins values, the source holds several entries; their conditions need not be identical. Equal entries are not always repeated. Residues, ends and D or L forms follow the SMILES beside them. No end group written: not given here. *: point of attachment. 5‑carboxyl‑2,2'‑bipyridine = O=C(c1ccc(-c2ccccn2)nc1)*

The solubility is the concentration that dissolves in the medium under given conditions. A lower solubility goes with little dissolved substance. Usually Kd stands for the free concentration of one partner at which half of the binding sites on the other are occupied at equilibrium, for simple one-to-one binding. Higher therefore signals a looser complex.

With `CC[C@H](C)[C@H](NC(=O)[C@H](Cc1ccc(O)cc1)NC(=O)[C@@H](NC(=O)[C@H](Cc1c[nH]cn1)NC(=O)CNC(=O)[C@@H]1CCCN1C(=O)[C@H](Cc1c[nH]cn1)NC(=O)[C@@H](NC(=O)[C@H](CO)NC(=O)[C@H](CC(C)C)NC(=O)[C@H](CS)NC(C)=O)C(C)C)[C@@H](C)O)C(=O)N[C@@H](CCC(N)=O)C(=O)N[C@@H](CS)C(N)=O` [peptide SEQ ID NO:19] (Ac-CLSVHPGHTYIQC-NH2), the “CD spectrum, structure indicated” value is “random-coiled structure” in series [1] (absence of added Zn, about 6.0×10^-6 M in Na borate, pH 7.5) and “beta-turn structure” in series [1] (one equivalent of Zn added). Also, the solubility in series [2] (aqueous media, water, absence of a metal ion, pH about 4 to about 9) is ≥ 2000 µg/mL and ≥ 1300 µM. In series [2] (pH values greater than about 5.0), the “decrease of aqueous solubility in the presence of Zn” value was “about 100 fold”.
For `CC(=O)N[C@@H](C)C(=O)N[C@@H](CCC(=O)O)C(=O)N[C@@H](C)C(=O)N[C@@H](C)C(=O)N[C@@H](C)C(=O)N[C@@H](CCCCN)C(=O)N[C@@H](CCC(=O)O)C(=O)N[C@@H](C)C(=O)N[C@@H](C)C(=O)N[C@@H](C)C(=O)N[C@@H](CCCCN)C(=O)N[C@@H](CS)C(=O)N[C@@H](C)C(=O)N[C@@H](C)C(=O)N[C@@H](C)C(=O)N[C@@H](Cc1c[nH]cn1)C(=O)N[C@@H](C)C(N)=O` [peptide SEQ ID NO:2, Ac--Ala--Glu--Ala--Ala--Ala--Lys--Glu--Ala--Ala--Ala--Lys--Cys--Ala--Ala--Ala--His--Ala--CONH2] (Ac-AEAAAKEAAAKCAAAHA-NH2), in [3] (CdCl2, pH 8.0, peptide 5.9×10^-6M in 10 mM sodium borate, 0.5 mM mercaptoethanol), binding was characterised by a dissociation constant (Kd) of 56 µM. Moreover, in [1], the “dependence of helicity on added NaF” value is recorded as “independent of concentration of added NaF up to 250 mM” and the “dependence of CD spectra on peptide concentration” value is on record as “independent of the peptide concentration”. In [1] (absence of metal ion (solution 7), water pH 6.65, 4° C.), this molecule came in with an alpha-helicity of 54%. Moreover, in series [1] (setting [11]), the alpha-helicity result is reported as “up to 90%” and the “θ222” value is on record as -31,500. Moreover, in series [4], the “effect of Zn(II) on helical content” value is reported as “no effect”. The metal ion selectivity result in series [5] (CD analysis, CdCl2 vs ZnCl2) is “Cd(II) selective”. The “metal ion(s) that preferentially stabilize the peptide” value in series [5] (summary of Example 3A(2), 3A(3)) is “Cu(II) and Zu(II)”.
Consider “-Gly-Glu-Leu-Ala-Glu-Gln-Lys-Leu-Glu-Gln-Ala-Leu-Gln-Lys-Leu-Ala ({5‑carboxyl‑2,2'‑bipyridine}-GELAEQKLEQALQKLA) [peptide of Example 4]”, for which, in series [1] (setting [12]), the alpha-helicity is 80% and the θ222 was -25,800 deg·cm2·dmol^-1. Also, in series [1] (setting [13]), the alpha-helicity is recorded as 30% and the θ222 was -10,000 deg·cm^2·dmol^-1. For the same molecule, in series [1] (setting [14]), the alpha-helicity entry is on record as “greater than 70%” and the θ222 is given as -23,400 degcm^2 dmol^-1. Besides, in [6], the “θmon, ellipticity of the monomer” value is recorded as -10,100 and the “θn, ellipticity of the self-associated form” value is listed as -27,900.
Turning to `CC(=O)N[C@@H](C)C(=O)N[C@@H](CCC(=O)O)C(=O)N[C@@H](C)C(=O)N[C@@H](C)C(=O)N[C@@H](C)C(=O)N[C@@H](CCCCN)C(=O)N[C@@H](CCC(=O)O)C(=O)N[C@@H](C)C(=O)N[C@@H](C)C(=O)N[C@@H](C)C(=O)N[C@@H](CCCCN)C(=O)N[C@@H](Cc1c[nH]cn1)C(=O)N[C@@H](C)C(=O)N[C@@H](C)C(=O)N[C@@H](C)C(=O)N[C@@H](Cc1c[nH]cn1)C(=O)N[C@@H](C)C(N)=O` [peptide SEQ ID NO:3, Ac--Ala--Glu--Ala--Ala--Ala--Lys--Glu--Ala--Ala--Ala--Lys--His--Ala--Ala--Ala--His--Ala--CONH2] (Ac-AEAAAKEAAAKHAAAHA-NH2), the Kd in [3] (CdCl2, pH 7.5, peptide 6.1×10^-5 M in 5 mM sodium borate) is 220 µM; in series [7], 66 µM; in series [4] (ZnCl2, pH 7.5, peptide 6.1×10^-5 M in 5 mM sodium borate, 21° C.) it was 75 µM; in series [9], 210 µM. For the same molecule, in series [1], the “dependence of helicity on added NaF” value is “independent of concentration of added NaF up to 250 mM”. Further, the alpha-helicity result in series [1] (setting [15]) is given as “about 90%”; in [1] (room temperature in water), 45%. Besides, the “θ222” value in series [1] (setting [15]) is reported as -31,100; in [1] (room temperature in water), -16,600. Further, in series [1], the “dependence of CD spectra on peptide concentration” value is given as “independent of the peptide concentration”. In addition, in [4], the “effect of Zn(II) on helical content” value is “considerable helical induction”. The “melting temperature (Tm)” value in series [8] came to 11 °C. For the same molecule, the “metal ions bound, order of affinity” value in series [5] (CD analysis, peptide SEQ ID NO:11 at pH 6.0) is “Ni(II), Cd(II), Cu(II) and Zn(II) in descending order of affinity”.
With “Ru(III)-peptide SEQ ID NO:4 complex: exchange-inert macrocyclic cis-[Ru(NH3)4 (L)2 ]^3+ complex of peptide SEQ ID NO:4 through two His residues at i and i+4 (AEAAAKHAAAHEAAAKA; Ru(III) tetraammine macrocyclic complex via two His)”, in series [1] (room temperature in water), the alpha-helicity was 50% and the θ222 is recorded as -17,300. In addition, in series [8], the “melting temperature (Tm)” value was 9.5 °C. In addition, the “pKa of the imidazole NH of the coordinated histidine” value in [10] was 7.5.

The values above are taken from patent US5408036A, “Isolated metallopolypeptide: compositions and synthetic methods” (The Scripps Research Institute, priority 1993, dated 1995).
